Data: PubChem BioAssay AID1845194 (Molecular Pharmacology Branch, DTP, NCI, 2023)
Several values for one entry are separate records, joined by “and”; a condition that tells them apart may be missing. Equal values may be shown once.

Tested on: 287954-098-R-J1 tumor spheroid viability
Experiment: Anticancer human tumor 287954-098-R-J1 patient-derived Ewing sarcoma cell line growth inhibition
Details: spheroids with HUVEC and MSC; for viability, T/C: stronger effect = lower value
Outline: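 Single agents and combinations were tested on spheroids built from tumor cells plus HUVEC and hMSC, at half-log dilutions starting at or near clinical Cmax, else 10 microM; final DMSO 0.25% (v/v).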

[1] = curve of first compound, second compound 0.003 µM
[2] = curve of first compound, second compound 0.00949 µM
[3] = curve of first compound, second compound 0.03 µM
[4] = curve of first compound, second compound 0.0949 µM
[5] = curve of first compound, second compound 0.3 µM
[6] = second compound 0.003 µM, first compound 0.0316 µM
[7] = second compound 0.003 µM, first compound 0.1 µM
[8] = second compound 0.003 µM, first compound 0.316 µM
[9] = second compound 0.003 µM, first compound 1 µM
[10] = second compound 0.003 µM, first compound 3.16 µM
[11] = second compound 0.003 µM, first compound 10 µM
[12] = second compound 0.00949 µM, first compound 0.0316 µM
[13] = second compound 0.00949 µM, first compound 0.1 µM
[14] = second compound 0.00949 µM, first compound 0.316 µM
[15] = second compound 0.00949 µM, first compound 1 µM
[16] = second compound 0.00949 µM, first compound 3.16 µM
[17] = second compound 0.00949 µM, first compound 10 µM
[18] = second compound 0.03 µM, first compound 0.0316 µM
[19] = second compound 0.03 µM, first compound 0.1 µM
[20] = second compound 0.03 µM, first compound 0.316 µM
[21] = second compound 0.03 µM, first compound 1 µM
[22] = second compound 0.03 µM, first compound 3.16 µM
[23] = second compound 0.03 µM, first compound 10 µM
[24] = second compound 0.0949 µM, first compound 0.0316 µM
[25] = second compound 0.0949 µM, first compound 0.1 µM
[26] = second compound 0.0949 µM, first compound 0.316 µM
[27] = second compound 0.0949 µM, first compound 1 µM
[28] = second compound 0.0949 µM, first compound 3.16 µM
[29] = second compound 0.0949 µM, first compound 10 µM
[30] = second compound 0.3 µM, first compound 0.0316 µM
[31] = second compound 0.3 µM, first compound 0.1 µM
[32] = second compound 0.3 µM, first compound 0.316 µM
[33] = second compound 0.3 µM, first compound 1 µM
[34] = second compound 0.3 µM, first compound 3.16 µM
[35] = second compound 0.3 µM, first compound 10 µM
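Further: spheroids exposed to compound for 7 days before viability readout.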
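Wherever viability, T/C is given: luminescent signal taken as surrogate of viable cell content; 100% = DMSO vehicle control viability and lower means growth inhibition.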

SMILES: Cc1cc(C)c(CNC(=O)c2cc(-c3ccc(CN4CCOCC4)cc3)cc3c2cnn3C2CCCC2)c(=O)[nH]1 + CC[C@@]1(O)C(=O)OCc2c1cc1n(c2=O)Cc2cc3c(CN(C)C)c(O)ccc3nc2-1
- IC50 [1]: > 10000 nM
- IC50 [2]: > 10000 nM
- IC50 [3]: < 31.6 nM
- IC50 [4]: < 31.6 nM
- IC50 [5]: < 31.6 nM
- viability, T/C [6]: 104%
- viability, T/C [7]: 106%
- viability, T/C [8]: 98.6%
- viability, T/C [9]: 96.5%
- viability, T/C [10]: 102%
- viability, T/C [11]: 119%
- viability, T/C [12]: 100%
- viability, T/C [13]: 114%
- viability, T/C [14]: 102%
- viability, T/C [15]: 108%
- viability, T/C [16]: 104%
- viability, T/C [17]: 104%
- viability, T/C [18]: 12.5%
- viability, T/C [19]: 42.9%
- viability, T/C [20]: 21.1%
- viability, T/C [21]: 36.1%
- viability, T/C [22]: 28.2%
- viability, T/C [23]: 18.9%
- viability, T/C [24]: 2.57%
- viability, T/C [25]: 2.37%
- viability, T/C [26]: 2.24%
- viability, T/C [27]: 2.24%
- viability, T/C [28]: 2.58%
- viability, T/C [29]: 2.04%
- viability, T/C [30]: 2.22%
- viability, T/C [31]: 2.08%
- viability, T/C [32]: 2.15%
- viability, T/C [33]: 2.38%
- viability, T/C [34]: 2.39%
- viability, T/C [35]: 1.61%

SMILES: COc1ccc([C@@H](O)c2cc(-c3ncnc4cc(N5CCOCC5)ccc34)c(F)cc2Cl)nn1 + CC[C@@]1(O)C(=O)OCc2c1cc1n(c2=O)Cc2cc3c(CN(C)C)c(O)ccc3nc2-1
- IC50 [1]: > 10000 nM
- IC50 [2]: > 10000 nM
- IC50 [3]: < 31.6 nM
- IC50 [4]: < 31.6 nM
- IC50 [5]: < 31.6 nM
- viability, T/C [6]: 91.5%
- viability, T/C [7]: 97.4%
- viability, T/C [8]: 95.8%
- viability, T/C [9]: 105%
- viability, T/C [10]: 96.5%
- viability, T/C [11]: 83.9%
- viability, T/C [12]: 94.3%
- viability, T/C [13]: 94.1%
- viability, T/C [14]: 100%
- viability, T/C [15]: 92.1%
- viability, T/C [16]: 93.2%
- viability, T/C [17]: 54.9%
- viability, T/C [18]: 21.7%
- viability, T/C [19]: 24.2%
- viability, T/C [20]: 11.3%
- viability, T/C [21]: 5.39%
- viability, T/C [22]: 0.97%
- viability, T/C [23]: 5.74%
- viability, T/C [24]: 1.23%
- viability, T/C [25]: 1.03%
- viability, T/C [26]: 1.21%
- viability, T/C [27]: 0.99%
- viability, T/C [28]: 0.52%
- viability, T/C [29]: 0.59%
- viability, T/C [30]: 1.41%
- viability, T/C [31]: 1.01%
- viability, T/C [32]: 1.15%
- viability, T/C [33]: 0.88%
- viability, T/C [34]: 0.44%
- viability, T/C [35]: 0.41%

SMILES: COc1ccc([C@@H](O)c2cc(-c3ncnc4cc(N5CCOCC5)ccc34)c(F)cc2Cl)nn1 + COc1cc2c(cc1O)CCNC21CSC2c3c(OC(C)=O)c(C)c4c(c3C(COC1=O)N1C(O)C3Cc5cc(C)c(OC)c(O)c5C(C21)N3C)OCO4
- IC50 (curve of first compound, second compound 30 pM): > 10000 nM
- IC50 (curve of first compound, second compound 94.9 pM): > 10000 nM
- IC50 (curve of first compound, second compound 0.0003 µM): 587 nM
- IC50 (curve of first compound, second compound 0.000949 µM): < 31.6 nM
- IC50 [1]: < 31.6 nM
- viability, T/C (second compound 30 pM, first compound 0.0316 µM): 101%
- viability, T/C (second compound 30 pM, first compound 0.1 µM): 99.2%
- viability, T/C (second compound 30 pM, first compound 0.316 µM): 100%
- viability, T/C (second compound 30 pM, first compound 1 µM): 109%
- viability, T/C (second compound 30 pM, first compound 3.16 µM): 104%
- viability, T/C (second compound 30 pM, first compound 10 µM): 94.3%
- viability, T/C (second compound 94.9 pM, first compound 0.0316 µM): 109%
- viability, T/C (second compound 94.9 pM, first compound 0.1 µM): 112%
- viability, T/C (second compound 94.9 pM, first compound 0.316 µM): 108%
- viability, T/C (second compound 94.9 pM, first compound 1 µM): 109%
- viability, T/C (second compound 94.9 pM, first compound 3.16 µM): 108%
- viability, T/C (second compound 94.9 pM, first compound 10 µM): 72.8%
- viability, T/C (second compound 0.0003 µM, first compound 0.0316 µM): 109%
- viability, T/C (second compound 0.0003 µM, first compound 0.1 µM): 109%
- viability, T/C (second compound 0.0003 µM, first compound 0.316 µM): 103%
- viability, T/C (second compound 0.0003 µM, first compound 1 µM): 4.2%
- viability, T/C (second compound 0.0003 µM, first compound 3.16 µM): 0.48%
- viability, T/C (second compound 0.0003 µM, first compound 10 µM): 1.07%
- viability, T/C (second compound 0.000949 µM, first compound 0.0316 µM): 0.54%
- viability, T/C (second compound 0.000949 µM, first compound 0.1 µM): 0.53%
- viability, T/C (second compound 0.000949 µM, first compound 0.316 µM): 0.35%
- viability, T/C (second compound 0.000949 µM, first compound 1 µM): 0.22%
- viability, T/C (second compound 0.000949 µM, first compound 3.16 µM): 0.12%
- viability, T/C (second compound 0.000949 µM, first compound 10 µM): 0.32%
- viability, T/C [6]: 0.43%
- viability, T/C [7]: 0.47%
- viability, T/C [8]: 0.36%
- viability, T/C [9]: 0.33%
- viability, T/C [10]: 0.32%
- viability, T/C [11]: 0.48%

SMILES: COc1cc(C)[nH]c(=O)c1CN1CCc2c(Cl)cc(C(OC)C3COC3)c(Cl)c2C1=O (centres undefined) + CC[C@@]1(O)C(=O)OCc2c1cc1n(c2=O)Cc2cc3c(CN(C)C)c(O)ccc3nc2-1
- IC50 [1]: > 10000 nM
- IC50 [2]: > 10000 nM
- IC50 [3]: 117 nM
- IC50 [4]: < 31.6 nM
- IC50 [5]: < 31.6 nM
- viability, T/C [6]: 94.9%
- viability, T/C [7]: 94.7%
- viability, T/C [8]: 99.9%
- viability, T/C [9]: 95.5%
- viability, T/C [10]: 88%
- viability, T/C [11]: 93%
- viability, T/C [12]: 108%
- viability, T/C [13]: 99.6%
- viability, T/C [14]: 92.3%
- viability, T/C [15]: 89.1%
- viability, T/C [16]: 95.1%
- viability, T/C [17]: 92.8%
- viability, T/C [18]: 63.6%
- viability, T/C [19]: 36.6%
- viability, T/C [20]: 50.9%
- viability, T/C [21]: 36.4%
- viability, T/C [22]: 28%
- viability, T/C [23]: 2.56%
- viability, T/C [24]: 1.65%
- viability, T/C [25]: 1.55%
- viability, T/C [26]: 1.34%
- viability, T/C [27]: 1.37%
- viability, T/C [28]: 1.24%
- viability, T/C [29]: 1.63%
- viability, T/C [30]: 1.38%
- viability, T/C [31]: 1.47%
- viability, T/C [32]: 1.35%
- viability, T/C [33]: 1.69%
- viability, T/C [34]: 1.33%
- viability, T/C [35]: 1.57%

SMILES: COc1ccc([C@@H](O)c2cc(-c3ncnc4cc(N5CCOCC5)ccc34)c(F)cc2Cl)nn1
- viability, T/C (compound 0.0316 µM): 96.1% and 101% and 92.6%
- viability, T/C (compound 0.1 µM): 96% and 113% and 96.1%
- viability, T/C (compound 0.316 µM): 97% and 107% and 92.6%
- viability, T/C (compound 1 µM): 105% (2×) and 102%
- viability, T/C (compound 3.16 µM): 109% and 98.1% and 100%
- viability, T/C (compound 10 µM): 103% and 87.1% and 82.1%
- IC50 (curve of compound): > 10000 nM

SMILES: [2H]c1nc(C)nc([2H])c1-c1cc(NC[C@@H](C)c2cccc3c(C(=O)NC)ccnc23)ncn1
- viability, T/C (compound 0.0316 µM): 96.4% and 109% and 110%
- viability, T/C (compound 0.1 µM): 101% and 107% and 112%
- viability, T/C (compound 0.316 µM): 95.5% and 108% and 106%
- viability, T/C (compound 1 µM): 104% and 102% and 108%
- viability, T/C (compound 3.16 µM): 98.3% and 96.3% and 100%
- viability, T/C (compound 10 µM): 101% and 103% and 109%
- IC50 (curve of compound): > 10000 nM
